Data: PubChem BioAssay AID256 (DTP/NCI, 2004)
Where “and” joins values, the source holds several entries; their conditions need not be identical. Identical values can stand only once. Inconclusive results and toxic doses are left out. Rule for the calls: active = survival T/C of 150% or more; inactive = T/C below 125% in these data.

Test system: CD2F1 mice, L1210 leukemia ip, survival T/C
Assay: NCI In Vivo Anticancer Drug Screen. Data for tumor model L1210 Leukemia (intraperitoneal) in CD2F1 (CDF1) mice
Details: higher = longer survival
Summary of the method: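 Mice carrying a transplanted tumor received test compound or vehicle alone. The value is the measurement in the treated group divided by that in the vehicle-treated control group.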

[1] = endpoint: mean survival time, dose: 12.5 mg/kg/injection, schedule: Q01DX009 (ip), vehicle: saline with Tween-80
[2] = endpoint: mean survival time, dose: 25.0 mg/kg/injection, schedule: Q01DX001 (ip), vehicle: saline with Tween-80
[3] = endpoint: mean survival time, dose: 25.0 mg/kg/injection, schedule: Q01DX009 (ip), vehicle: saline with Tween-80
[4] = endpoint: mean survival time, dose: 50.0 mg/kg/injection, schedule: Q01DX001 (ip), vehicle: saline with Tween-80
[5] = endpoint: mean survival time, dose: 50.0 mg/kg/injection, schedule: Q01DX009 (ip), vehicle: saline with Tween-80
[6] = endpoint: mean survival time, dose: 100.0 mg/kg/injection, schedule: Q01DX001 (ip), vehicle: saline with Tween-80
[7] = endpoint: mean survival time, dose: 200.0 mg/kg/injection, schedule: Q01DX001 (ip), vehicle: saline with Tween-80
[8] = endpoint: mean survival time, dose: 400.0 mg/kg/injection, schedule: Q01DX001 (ip), vehicle: saline with Tween-80
[9] = endpoint: mean survival time, dose: 100.0 mg/kg/injection, schedule: Q01DX009 (ip), vehicle: saline with Tween-80
[10] = endpoint: mean survival time, dose: 200.0 mg/kg/injection, schedule: Q01DX009 (ip), vehicle: saline with Tween-80
[11] = endpoint: mean survival time, dose: 100.0 mg/kg/injection, schedule: Q04DX003 (ip), vehicle: saline with Tween-80
[12] = endpoint: mean survival time, dose: 200.0 mg/kg/injection, schedule: Q04DX003 (ip), vehicle: saline with Tween-80
[13] = endpoint: mean survival time, dose: 400.0 mg/kg/injection, schedule: Q01DX009 (ip), vehicle: saline with Tween-80
[14] = endpoint: mean survival time, dose: 50.0 mg/kg/injection, schedule: Q04DX003 (ip), vehicle: saline with Tween-80

Measured: T/C

O=C(O)c1ccc(N/N=C/C(F)(F)F)cc1
inactive: endpoint: mean survival time, dose: 1.87 mg/kg/injection, schedule: Q01DX009 (ip), vehicle: saline 107 % of control | endpoint: mean survival time, dose: 3.75 mg/kg/injection, schedule: Q01DX009 (ip), vehicle: saline 105 % of control | endpoint: mean survival time, dose: 6.25 mg/kg/injection, schedule: Q01DX001 (ip), vehicle: saline with Tween-80 97 % of control | endpoint: mean survival time, dose: 7.5 mg/kg/injection, schedule: Q01DX009 (ip), vehicle: saline 105 % of control | endpoint: mean survival time, dose: 12.5 mg/kg/injection, schedule: Q01DX001 (ip), vehicle: saline with Tween-80 94 % of control | [1] 107 % of control | endpoint: mean survival time, dose: 15.0 mg/kg/injection, schedule: Q01DX009 (ip), vehicle: saline 109 % of control | [2] 94 % of control | [3] 109 % of control | [4] 101 % of control | [5] 101 % of control | [6] 95 % of control | [7] 89 % of control | [8] 118 % of control

CCCc1cccc[n+]1CC(=O)c1ccccc1
inactive: endpoint: mean survival time, dose: 6.25 mg/kg/injection, schedule: Q04DX003 (ip), vehicle: saline 106 % of control | endpoint: mean survival time, dose: 12.5 mg/kg/injection, schedule: Q04DX003 (ip), vehicle: saline 98 % of control | endpoint: mean survival time, dose: 25.0 mg/kg/injection, schedule: Q04DX003 (ip), vehicle: saline 98 % of control

CCCCCCCCC(=O)N(C)OC
inactive: [5] 102 % of control | [9] 104 % of control

CC(=O)OC1CC2C=CCC21 (stereo unspecified)
inactive: [6] 100 % of control | [7] 96 % of control | [8] 96 % of control

O=C(CNC(=O)Nc1cccc(C(F)(F)F)c1)N/N=C/c1ccccc1Cl
inactive: [1] 87 % of control | [3] 87 % of control | [5] 87 % of control and 96 % of control | [9] 103 % of control | [10] 100 % of control

CNC(=O)O/N=C(\CN=[N+]=[N-])C(C)(C)C
inactive: endpoint: median survival time, dose: 0.25 mg/kg/injection, schedule: Q01DX009 (ip), vehicle: saline 102 % of control | endpoint: median survival time, dose: 0.5 mg/kg/injection, schedule: Q01DX009 (ip), vehicle: saline 96 % of control | endpoint: median survival time, dose: 1.0 mg/kg/injection, schedule: Q01DX009 (ip), vehicle: saline 103 % of control

CC(C)(CCC#N)/C(=N\Nc1ccc([N+](=O)[O-])cc1[N+](=O)[O-])c1ccccc1
inactive: endpoint: mean survival time, dose: 75.0 mg/kg/injection, schedule: Q04DX002 (ip), vehicle: saline with Tween-80 90 % of control | endpoint: mean survival time, dose: 150.0 mg/kg/injection, schedule: Q04DX002 (ip), vehicle: saline with Tween-80 102 % of control | endpoint: mean survival time, dose: 300.0 mg/kg/injection, schedule: Q04DX002 (ip), vehicle: saline with Tween-80 94 % of control

CCC(=O)c1ccc(OCOc2ccc(C(=O)CC)cc2OC)c(OC)c1
inactive: endpoint: mean survival time, dose: 100.0 mg/kg/injection, schedule: Q01DX001 (ip), vehicle: saline 94 % of control | endpoint: mean survival time, dose: 200.0 mg/kg/injection, schedule: Q01DX001 (ip), vehicle: saline 96 % of control | endpoint: mean survival time, dose: 400.0 mg/kg/injection, schedule: Q01DX001 (ip), vehicle: saline 91 % of control

COC1=C(C)C(=O)C2=C(C1=O)C1C3CC4=C(C(=O)C(OC)=C(C)C4=O)C(CNC(=O)C(C)=O)N3C(C#N)C(C2)N1C (stereo unspecified)
inactive: endpoint: median survival time, dose: 0.13 mg/kg/injection, schedule: Q01DX009 (ip), vehicle: Klucel (hydroxypropylcellulose) (HPC) 118 % of control | endpoint: median survival time, dose: 0.25 mg/kg/injection, schedule: Q01DX009 (ip), vehicle: Klucel (hydroxypropylcellulose) (HPC) 110 % of control | endpoint: median survival time, dose: 0.5 mg/kg/injection, schedule: Q01DX009 (ip), vehicle: Klucel (hydroxypropylcellulose) (HPC) 113 % of control and 108 % of control | endpoint: median survival time, dose: 1.0 mg/kg/injection, schedule: Q01DX009 (ip), vehicle: Klucel (hydroxypropylcellulose) (HPC) 116 % of control and 112 % of control | endpoint: median survival time, dose: 2.0 mg/kg/injection, schedule: Q01DX009 (ip), vehicle: Klucel (hydroxypropylcellulose) (HPC) 108 % of control | endpoint: median survival time, dose: 62.5 micrograms/kg/injection, schedule: Q01DX009 (ip), vehicle: Klucel (hydroxypropylcellulose) (HPC) 100 % of control | endpoint: median survival time, dose: 125.0 micrograms/kg/injection, schedule: Q01DX009 (ip), vehicle: Klucel (hydroxypropylcellulose) (HPC) 104 % of control | endpoint: median survival time, dose: 250.0 micrograms/kg/injection, schedule: Q01DX009 (ip), vehicle: Klucel (hydroxypropylcellulose) (HPC) 108 % of control | endpoint: median survival time, dose: 500.0 micrograms/kg/injection, schedule: Q01DX009 (ip), vehicle: Klucel (hydroxypropylcellulose) (HPC) 117 % of control | endpoint: median survival time, dose: 1000.0 micrograms/kg/injection, schedule: Q01DX009 (ip), vehicle: Klucel (hydroxypropylcellulose) (HPC) 122 % of control

O=c1[nH]c(=S)c(SCc2ccccc2)nn1C1OC(CO)C(O)C1O (stereo unspecified)
inactive: endpoint: mean survival time, dose: 12.5 mg/kg/injection, schedule: Q01DX005 (ip), vehicle: distilled water + Tween-80 95 % of control | endpoint: mean survival time, dose: 25.0 mg/kg/injection, schedule: Q01DX005 (ip), vehicle: distilled water + Tween-80 97 % of control | endpoint: mean survival time, dose: 50.0 mg/kg/injection, schedule: Q01DX005 (ip), vehicle: distilled water + Tween-80 100 % of control | endpoint: mean survival time, dose: 100.0 mg/kg/injection, schedule: Q01DX005 (ip), vehicle: distilled water + Tween-80 95 % of control | endpoint: mean survival time, dose: 200.0 mg/kg/injection, schedule: Q01DX005 (ip), vehicle: distilled water + Tween-80 94 % of control

Cc1cn(C2CC(O)C(CO)O2)c(=O)nc1NCC12CC3CC(CC(C3)C1)C2 (stereo unspecified)
inactive: endpoint: median survival time, dose: 12.5 mg/kg/injection, schedule: Q01DX005 (ip), vehicle: distilled water + Tween-80 105 % of control | endpoint: median survival time, dose: 25.0 mg/kg/injection, schedule: Q01DX005 (ip), vehicle: distilled water + Tween-80 104 % of control | endpoint: median survival time, dose: 50.0 mg/kg/injection, schedule: Q01DX005 (ip), vehicle: distilled water + Tween-80 102 % of control | endpoint: median survival time, dose: 100.0 mg/kg/injection, schedule: Q01DX005 (ip), vehicle: distilled water + Tween-80 94 % of control

CNCC(O)c1ccc(O)cc1 (stereo unspecified)
inactive: endpoint: mean survival time, dose: 100.0 mg/kg/injection, schedule: Q01DX009 (ip), vehicle: saline 94 % of control | endpoint: mean survival time, dose: 200.0 mg/kg/injection, schedule: Q01DX009 (ip), vehicle: saline 91 % of control

CCC/C(C)=N/Nc1ccc([N+](=O)[O-])cc1
inactive: [9] 94 % of control | [11] 95 % of control | [10] 100 % of control | [12] 97 % of control | [13] 94 % of control | endpoint: mean survival time, dose: 400.0 mg/kg/injection, schedule: Q04DX003 (ip), vehicle: saline with Tween-80 93 % of control

CS(=O)(=O)OCCN(CCOS(C)(=O)=O)c1ccc(N=O)c(Cl)c1
inactive: [11] 124 % of control

O=C(CC(=O)Nc1ccc([N+](=O)[O-])cc1)Nc1ccc([N+](=O)[O-])cc1
inactive: [9] 91 % of control | [10] 86 % of control | [13] 89 % of control

CCOC(=O)c1ccc(NC(=O)Oc2cc3ccccc3cc2C(=O)Nc2ccccc2)cc1
inactive: [2] 87 % of control | [3] 94 % of control and 96 % of control | endpoint: mean survival time, dose: 25.0 mg/kg/injection, schedule: Q04DX002 (ip), vehicle: saline with Tween-80 97 % of control | endpoint: mean survival time, dose: 25.0 mg/kg/injection, schedule: Q04DX003 (ip), vehicle: saline with Tween-80 96 % of control and 98 % of control | [4] 87 % of control | [5] 88 % of control and 92 % of control | endpoint: mean survival time, dose: 50.0 mg/kg/injection, schedule: Q04DX002 (ip), vehicle: saline with Tween-80 88 % of control and 92 % of control | [14] 88 % of control and 92 % of control | [6] 87 % of control | [9] 91 % of control and 96 % of control | [11] 92 % of control | endpoint: mean survival time, dose: 200.0 mg/kg/injection, schedule: Q04DX002 (ip), vehicle: saline with Tween-80 87 % of control | [12] 92 % of control and 93 % of control

CNC(=S)C(=S)NC
inactive: endpoint: mean survival time, dose: 6.25 mg/kg/injection, schedule: Q01DX009 (ip), vehicle: saline with Tween-80 100 % of control | [1] 97 % of control | [3] 95 % of control | [14] 93 % of control

COc1ccc(C(=O)OCC(=O)O)cc1
inactive: [4] 102 % of control | [6] 98 % of control | [7] 102 % of control

Nc1ccc2cc(O)ccc2c1
inactive: [1] 91 % of control | [3] 98 % of control | [5] 95 % of control

CN=C(N)N/N=C(\c1ccccc1)c1ccc(Br)cc1
inactive: endpoint: median survival time, dose: 3.12 mg/kg/injection, schedule: Q01DX009 (ip), vehicle: saline 100 % of control | endpoint: median survival time, dose: 6.25 mg/kg/injection, schedule: Q01DX009 (ip), vehicle: saline 106 % of control | endpoint: median survival time, dose: 12.5 mg/kg/injection, schedule: Q01DX009 (ip), vehicle: saline 107 % of control | endpoint: median survival time, dose: 25.0 mg/kg/injection, schedule: Q01DX009 (ip), vehicle: saline 121 % of control

CCCCN1C(=O)C(=O)N(c2ccc(S(N)(=O)=O)cc2)C1=O
inactive: [5] 100 % of control | [9] 89 % of control
